Structures can show the parent of a compound that is named as a salt. Where two headings read alike, the source gives them in different places.
Key:
[1] = molecular target: T1, MMP-9 (Homo sapiens, UniProt P14780); test: Thiopeptilide MMP-9 Inhibition Assay; format: biochemical; conditions: for inhibition at 5 µM: read-out: MMP-9: Thiopep. % inhibition
T1 construct: from tissue; host or cells: human polymorphonuclear leukocytes (PMN) from whole blood (New York Blood Center), PMA-stimulated supernatant

[2] = molecular target: T2, MMP-3 (Homo sapiens, UniProt P08254); test: Primary Thiopeptilide MMP-3 Inhibition Assay; format: biochemical; conditions: for IC50: 13 nM stromelysin, x (n) = average of n determinations; for inhibition at 5 µM: read-out: MMP-3 Thiopep. % inhibition
T2 construct: Truncated Prostromelysin-257 was expressed in a soluble form in E.coli; made in house; host or cells: E. coli
Protocol: Enzyme: recombinant stromelysin expressed in E.coli and purified as described above. […] The protocols for the assay of compounds as stromelysin inhibitors was the same as that used for MMP-9 except that the assay buffer was 50 mM MES, pH 6.5 containing 150 mM NaCl, 10 mM CaCl2, 0.005% Brij, and 1% DMSO.

[3] = pH 6.5, x (n) = average of n determinations, read-out: MMP-9: Thiopep. IC50
[4] = pH 6.5, read-out: MMP-3 Thiopep. IC50

T2 sequence (P08254 100-274 limits assumed): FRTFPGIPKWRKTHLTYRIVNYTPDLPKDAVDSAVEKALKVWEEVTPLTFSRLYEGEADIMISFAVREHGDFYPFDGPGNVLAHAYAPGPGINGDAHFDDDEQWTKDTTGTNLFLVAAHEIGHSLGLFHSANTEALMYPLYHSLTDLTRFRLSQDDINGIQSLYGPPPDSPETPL
T1 sequence (P14780 107-707 limits assumed): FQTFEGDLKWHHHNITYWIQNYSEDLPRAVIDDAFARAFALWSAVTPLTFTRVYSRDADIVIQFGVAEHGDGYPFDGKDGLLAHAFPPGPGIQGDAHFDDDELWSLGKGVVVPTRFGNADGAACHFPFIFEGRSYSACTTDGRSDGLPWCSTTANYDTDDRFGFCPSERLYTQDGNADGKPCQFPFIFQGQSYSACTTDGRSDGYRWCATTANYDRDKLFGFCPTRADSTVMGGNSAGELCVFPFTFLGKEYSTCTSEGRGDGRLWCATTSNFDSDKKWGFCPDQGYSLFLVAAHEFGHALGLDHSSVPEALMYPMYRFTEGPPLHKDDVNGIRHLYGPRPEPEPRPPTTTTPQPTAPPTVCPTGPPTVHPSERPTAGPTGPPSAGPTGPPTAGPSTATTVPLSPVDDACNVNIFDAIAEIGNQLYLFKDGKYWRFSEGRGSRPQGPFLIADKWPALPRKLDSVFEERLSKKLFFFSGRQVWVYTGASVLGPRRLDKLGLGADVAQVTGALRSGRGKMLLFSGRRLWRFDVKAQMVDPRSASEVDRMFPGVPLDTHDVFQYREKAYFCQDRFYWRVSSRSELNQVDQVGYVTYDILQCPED

SMILES	IC50 [1, 3]	IC50 [2, 4]	inhibition at 5 µM ([1]; at 5 μM)	further results
CCCCOc1ccc(-c2ccc(C(=O)CC(CCCc3ccccc3)C(=O)O)cc2)cc1 (stereo not drawn) [Example 89, [1,1'-Biphenyl]-4-butanoic acid, 4'-butoxy-γ-oxo-α-(3-phenylpropyl)-]	0.48 µM	0.111 µM		
O=C(CC(CSc1ccc(Cl)c(Cl)c1)C(=O)O)c1ccc(-c2ccc(Cl)cc2)cc1 (stereo not drawn) [Example 216, [1,1'-Biphenyl]-4-butanoic acid, 4'-chloro-α-[[(3,4-dichlorophenyl)thio]methyl]-γ-oxo-]	0.59 µM	0.77 µM		
CNC(=O)c1ccccc1SCC(CC(=O)c1ccc(-c2ccc(Cl)cc2)cc1)C(=O)O (stereo not drawn) [Example 250, [1,1'-Biphenyl]-4-butanoic acid, 4'-chloro-α-[[[2-[(methylamino)carbonyl]phenyl]thio]methyl]-γ-oxo-]	0.8 µM	0.125 µM		
O=C(CC(CSc1ccc2ccccc2c1)C(=O)O)c1ccc(-c2ccc(Cl)cc2)cc1 (stereo not drawn) [Example 226, [1,1'-Biphenyl]-4-butanoic acid, 4'-chloro-α-[(2-naphthalenylthio)methyl]-γ-oxo-]	0.255 µM	0.72 µM		
CC(C)(C)OC(=O)NCc1ccc(-c2ccc(C(=O)CC(CCCc3ccccc3)C(=O)O)cc2)cc1 (stereo not drawn) [Example 49, [1,1'-Biphenyl]-4-butanoic acid, 4'-[[[(1,1-dimethylethoxy)carbonyl]amino]methyl]-γ-oxo-α-(3-phenylpropyl)-]		0.75 µM	13%	
CCCCC(CC(=O)c1ccc(-c2ccc(Cl)cc2)cc1)C(=O)O (stereo not drawn) [Example 120, [1,1'-Biphenyl]-4-butanoic acid, α-butyl-4'-chloro-γ-oxo-]		0.38 µM	60%	
O=C(O)[C@@H]1[C@@H](C(=O)c2ccc(-c3ccc(Cl)cc3)cc2)CC[C@H]1Sc1ccc(F)cc1 (relative stereo) [Example 309, Cyclopentanecarboxylic acid, 2-[(4'-chloro[1,1'-biphenyl]-4-yl)carbonyl]-5-[(4-fluorophenyl)thio]-, (1α,2β-5β)-]	0.062 µM	0.073 µM		
O=C(CC(NC(c1ccccc1)c1ccccc1)C(=O)O)c1ccc(-c2ccc(Cl)cc2)cc1 (stereo not drawn) [Example 260, [1,1'-Biphenyl]-4-butanoic acid, 4'-chloro-α-[(diphenylmethyl)amino]-γ-oxo-, hydrochloride]		0.52 µM		inhibition at 5 µM [1]: 16%
O=C(CC(CSCCCc1ccccc1)C(=O)O)c1ccc(-c2ccc(Cl)cc2)cc1 (stereo not drawn) [Example 207, [1,1'-Biphenyl]-4-butanoic acid, 4'-chloro-γ-oxo-α-[[(3-phenylpropyl)thio]methyl]-]	0.29 µM	0.18 µM		
CCCCCCOc1ccc(-c2ccc(C(=O)CC(CCCc3ccccc3)C(=O)O)cc2)cc1 (stereo not drawn) [Example 88, [1,1'-Biphenyl]-4-butanoic acid, 4'-(hexyloxy)γ-oxo-α-(3-phenylpropyl)-]		0.168 µM	30%	
Cc1cccc(SCC(CC(=O)c2ccc(-c3ccc(Cl)cc3)cc2)C(=O)O)c1 (stereo not drawn) [Example 231, [1,1'-Biphenyl]-4-butanoic acid, 4'-chloro-α-[[(3-methylphenyl)thio]methyl]-γ-oxo-]	0.82 µM	0.28 µM		
O=C(CC(CCCc1ccccc1)C(=O)O)c1ccc(-c2ccc(CO)cc2)cc1 (stereo not drawn) [Example 53, [1,1'-Biphenyl]-4-butanoic acid, 4'-(hydroxymethyl)-γ-oxo-α-(3-phenylpropyl)-]	0.8 µM	0.95 µM		
O=C(O)CCC(=O)c1ccc(-c2ccc(F)cc2F)cc1 [Example 11, [1,1'-Biphenyl]-4-butanoic acid, 2',4'-difluoro-γ-oxo-, reference compound]			0%	inhibition at 5 µM [2]: 14%
COc1cccc(CCC(CC(=O)c2ccc(-c3ccc(Cl)cc3)cc2)C(=O)O)c1 (stereo not drawn) [Example 188, [1,1'-Biphenyl]-4-butanoic acid, 4'-chloro-α-[2-(3-methoxyphenyl)ethyl]-γ-oxo-]	1.3 µM	0.151 µM		
O=C(CC(CSc1ccccc1O)C(=O)O)c1ccc(-c2ccc(Cl)cc2)cc1 (stereo not drawn) [Example 240, [1,1'-Biphenyl]-4-butanoic acid, 4'-chloro-α-[[(2-hydroxyphenyl)thio]methyl]-γ-oxo-]	0.3 µM	0.096 µM		
CCCC(CC(=O)c1ccc(-c2ccc(Cl)cc2)cc1)C(=O)O (stereo not drawn) [Example 118, [1,1'-Biphenyl]-4-butanoic acid, 4'-chloro-γ-oxo-α-propyl-]	2.2 µM	0.44 µM		
O=C(CC(CC#Cc1ccccc1)C(=O)O)c1ccc(-c2ccc(Cl)cc2)cc1 (stereo not drawn) [Example 189, [1,1'-Biphenyl]-4-butanoic acid, 4'-chloro-γ-oxo-α-(3-phenyl-2-propynyl)-]	0.6 µM	0.53 µM		
C=C(CC(=O)c1ccc(C)cc1)C(=O)O [Example 28, Benzenebutanoic acid, 4-methyl-α-methylene-γ-oxo-, reference compound]			0%	inhibition at 5 µM [2]: 14%

SMILES	IC50 [1, 3]	IC50 [2, 4]	inhibition at 5 µM ([1]; at 5 μM)	further results
O=C(O)[C@@H]1C[C@H]1C(=O)c1ccc(-c2ccc(Cl)cc2)cc1 (relative stereo) [Example 293, Cyclopropanecarboxylic acid, 2-[(4'-chloro[1,1'-biphenyl]-4-yl)carbonyl]-, trans-, reference compound]			0%	inhibition at 5 µM [2]: 16%
COc1ccc(SCC(CC(=O)c2ccc(-c3ccc(Cl)cc3)cc2)C(=O)O)cc1OC (stereo not drawn) [Example 215, [1,1'-Biphenyl]-4-butanoic acid, 4'-chloro-α-[[(3,4-dimethoxyphenyl)thio]methyl]-γ-oxo-]	1.2 µM	1.3 µM		
C[C@H](C(=O)c1ccc(-c2ccc(Cl)cc2)cc1)[C@@H](C)C(=O)O (relative stereo) [Example 284, [1,1'-Biphenyl]-4-butanoic acid, 4'-chloro-α,β-dimethyl-γ-oxo-, (R*,S*)-]			1%	inhibition at 5 µM [2]: 10%
C=C(CC(O)c1ccc(-c2ccc(Cl)cc2)cc1)C(=O)O (stereo not drawn) [Example 38, [1,1'-Biphenyl]-4-butanoic acid, 4'-chloro-γ-hydroxy-α-methylene-, reference compound]		10 µM	10%	
CCc1ccc(-c2ccc(C(=O)CC(CC(C)C)C(=O)O)nc2)cc1 (stereo not drawn) [Example 61, 2-Pyridinebutanoic acid, 5-(4-ethylphenyl)-α-(2-methylpropyl)-γ-oxo-]			22%	inhibition at 5 µM [2]: 35%
CC(=O)SCC(CC(=O)c1ccc(-c2ccc(Cl)cc2)cc1)C(=O)O (stereo not drawn) [Example 200, [1,1'-Biphenyl]-4-butanoic acid, α-[(acetylthio)methyl]-4'-chloro-γ-oxo-]	2.3 µM	0.64 µM		
CC(=O)c1ccc(-c2ccc(Cl)cc2)cc1 [Example 37, Ethanone, 1-(4'-chloro[1,1'-biphenyl]-4-yl)-]			0%	inhibition at 5 µM [2]: 9%
CC(C)(C)c1ccc(SCC(CC(=O)c2ccc(-c3ccc(Cl)cc3)cc2)C(=O)O)cc1 (stereo not drawn) [Example 213, [1,1'-Biphenyl]-4-butanoic acid, 4'-chloro-α-[[(4-(1,1-dimethylethyl)phenyl]thio]methyl]-γ-oxo-]		2.5 µM	41%	
O=C(O)[C@@H]1CCC[C@H]1C(=O)c1ccc(-c2ccc(Cl)cc2)cc1 (relative stereo) [Example 289, Cyclopentanecarboxylic acid, 2-[(4'-chloro[1,1'-biphenyl]-4-yl)carbonyl]-, trans-]	0.91 µM	0.348 µM		
COc1ccccc1SCC(CC(=O)c1ccc(-c2ccc(Cl)cc2)cc1)C(=O)O (stereo not drawn) [Example 229, [1,1'-Biphenyl]-4-butanoic acid, 4'-chloro-α-[[(2-methoxyphenyl)thio]methyl]-γ-oxo-]	0.9 µM	0.3 µM		
O=C(CC(CSc1cccc2ccccc12)C(=O)O)c1ccc(-c2ccc(Cl)cc2)cc1 (stereo not drawn) [Example 227, [1,1'-Biphenyl]-4-butanoic acid, 4'-chloro-α-[(1-naphthalenylthio)methyl]-γ-oxo-]	0.36 µM	0.22 µM		
CC(C)(C)c1ccc(-c2ccc(C(=O)CC(CCCc3ccccc3)C(=O)O)cc2)cc1 (stereo not drawn) [Example 48, [1,1'-Biphenyl]-4-butanoic acid, 4'-(1,1-dimethylethyl)-γ-oxo-α-(3-phenylpropyl)-]			15%	inhibition at 5 µM [2]: 53%
CC(=O)Nc1ccc(SCC(CC(=O)c2ccc(-c3ccc(Cl)cc3)cc2)C(=O)O)cc1 (stereo not drawn) [Example 223, [1,1'-Biphenyl]-4-butanoic acid, α-[[[4-(acetylamino)phenyl]thio]methyl]-4'-chloro-γ-oxo-]	0.58 µM	0.93 µM		
C[Si](C)(C)CC(CC(=O)c1ccc(-c2ccc(Cl)cc2)cc1)C(=O)O (stereo not drawn) [Example 133, [1,1'-Biphenyl]-4-butanoic acid, 4'-chloro-γ-oxo-α-[(trimethylsilyl)methyl]-]				IC50 [1]: 10 µM; IC50 ([2]; MMP-3 Thiopep. IC50, pH 6.5): 0.64 µM
Cc1ccccc1S[C@H]1CC[C@H](C(=O)c2ccc(-c3ccc(Cl)cc3)cc2)[C@H]1C(=O)O (relative stereo) [Example 306, Cyclopentanecarboxylic acid, 2-[(4'-chloro[1,1'-biphenyl]-4-yl)carbonyl]-5-[(2-methylphenyl)thio]-, (1α,2β,5α)-]	0.55 µM	0.15 µM		
O=C(CC(CCCc1ccccc1)C(=O)O)c1ccc(-c2ccc(Cl)s2)cc1 (stereo not drawn) [Example 68, Benzenepentanoic acid, α-[2-[4-(5-chloro-2-thienyl)phenyl]-2-oxoethyl]-]	0.3 µM	0.28 µM		
CC(C)c1ccccc1SCC(CC(=O)c1ccc(-c2ccc(Cl)cc2)cc1)C(=O)O (stereo not drawn) [Example 221, [1,1'-Biphenyl]-4-butanoic acid, 4'-chloro-α-[[[2-(1-methylethyl)phenyl]thio]methyl]-γ-oxo-]	2.4 µM	0.24 µM		
